# Laboratory results: patent US6465221B1, “Method of producing a taxane-type diterpene” (Mitsui Chemicals, Inc., priority 1994, dated 2002)
# What was measured:
# [1] = system: cultured cells of Taxus media; conditions: α-linolenic acid, concentration not given, 14 days
# Method: Two grams (fresh weight) of the cultured cells thus obtained by liquid culture was inoculated to 20 ml of liquid Woody Plant Medium (contained in an Erlenmeyer flask of 100 ml) to which α-linolenic acid of 0.01-1000 μM (dissolved in ethanol) was added, and shake culture was carried out at 25° C. in a dark place with a rotary shaker (amplification of 25 mm, 100 rpm).
# After completing the culture for 14 days, cultured cells were harvested by filtration and lyophilized, then the dry weight was measured to obtain the yield thereof. Taxane-type diterpenes were extracted from the dried callus and the culture medium with methanol or the like, and they were determined by comparing with standard taxol using high performance liquid chromatography to measure the yield of taxol.
# [2] = system: cultured cells of Taxus baccata LINN; test: Taxus baccata cell culture with fatty acids or natural oil; format: cell-based; conditions: 14 days
# Method: One gram (fresh weight) of the callus was inoculated to an Erlenmeyer flask containing 20 ml of liquid Woody Plant Medium and shake culture was carried out with a rotary shaker (amplification of 25 mm, 100 rpm) and the callus was subcultured in every 21 days to accelerate the growth rate thereof.
# [3] = system: cultured cells of Taxus media; test: Taxus media cell culture with coronatine; format: cell-based; conditions: concentration of coronatines 1 μM
# Method: (§1) One gram (fresh weight) of the cultured cells thus obtained was inoculated to an Erlenmeyer flask containing 20 ml of liquid Woody Plant Medium to which the above-mentioned component was added to give the same concentration, and shake culture was carried out at 25° C. for 14 days. On the 14th day after starting the culture, 50 μl of coronatine [formula (IV)] was added as coronatines to the culture medium to give the final concentration of 0.001-1000 μM and the culture was further carried out for another 7 days.
# (§2) After completing the culture, cultured cells of Taxus baccata LINN were harvested by filtration and lyophilized, then the dry weight was measured to obtain the yeild of the cultured cells per liter of the liquid medium.
# Example 7 was repeated except that cultured cells of Taxus media, which was obtained in the process analogous to that of said example were used and coronatine was added as coronatines to give the final concentration of 1 μM.
# [4] = system: cultured cells of Taxus baccata LINN; test: Taxus baccata cell culture with coronatines; format: cell-based
# Method: A part of stem of Taxus baccata LINN which had been previously sterilized with 2% antiformin solution or 70% ethanol solution or the like, was placed on solid Woody Plant Medium (containing gelan gum of 0.25% by weight) to which naphthalenacetic acid had been added to give the concentration of 10^−5 M, and static culture was carried out at 25 ° C. in a dark place to provide callus of Taxus baccata LINN. One gram (fresh weight) of the callus was inoculated to an Erlenmeyer flask containing 20 ml of liquid Woody Plant Medium to which the above-mentioned component was added to give the same concentration and shake culture was carried out with a rotary shaker (amplification of 25 mm, 120 rpm) and the callus was subcultured in every 21 days to accelerate the growth rate thereof.
# as §1, §2
# [5] = concentration of α-linolenic acid 0.01 μM
# [6] = concentration of α-linolenic acid 0.1 μM
# [7] = concentration of α-linolenic acid 1 μM
# [8] = concentration of α-linolenic acid 10 μM
# [9] = concentration of α-linolenic acid 100 μM
# [10] = concentration of α-linolenic acid 500 μM
# [11] = concentration of α-linolenic acid 1000 μM
# [12] = concentration of coronatines 0.001 μM
# [13] = concentration of coronatines 0.01 μM
# [14] = concentration of coronatines 0.1 μM
# [15] = concentration of coronatines 1 μM
# [16] = concentration of coronatines 10 μM
# [17] = concentration of coronatines 100 μM
# [18] = concentration of coronatines 1000 μM
structure (smiles),measurement,setting,value
"CC/C=C\C/C=C\C/C=C\CCCCCCCC(=O)O [Example 26, α-linolenic acid]",yield of cells,[1],20 g/L
same,"yield of taxane-type diterpenes, baccatin III",[1],10 mg/L
same,"yield of taxane-type diterpenes, cephalomannine",[1],2 mg/L
same,"yield of taxane-type diterpenes, taxol",[1],22 mg/L
same,yield of cells,[2]; [5],20 g/L
same,"yield of taxane-type diterpenes, baccatin III",[2]; [5],2 mg/L
same,"yield of taxane-type diterpenes, cephalomannine",[2]; [5],2 mg/L
same,"yield of taxane-type diterpenes, taxol",[2]; [5],5 mg/L
same,yield of cells,[2]; [6],20 g/L
same,"yield of taxane-type diterpenes, baccatin III",[2]; [6],2 mg/L
same,"yield of taxane-type diterpenes, cephalomannine",[2]; [6],2 mg/L
same,"yield of taxane-type diterpenes, taxol",[2]; [6],6 mg/L
same,yield of cells,[2]; [7],20 g/L
same,"yield of taxane-type diterpenes, baccatin III",[2]; [7],2 mg/L
same,"yield of taxane-type diterpenes, cephalomannine",[2]; [7],2 mg/L
same,"yield of taxane-type diterpenes, taxol",[2]; [7],6 mg/L
same,yield of cells,[2]; [8],20 g/L
same,"yield of taxane-type diterpenes, baccatin III",[2]; [8],3 mg/L
same,"yield of taxane-type diterpenes, cephalomannine",[2]; [8],4 mg/L
same,"yield of taxane-type diterpenes, taxol",[2]; [8],8 mg/L
same,yield of cells,[2]; [9],19 g/L
same,"yield of taxane-type diterpenes, baccatin III",[2]; [9],6 mg/L
same,"yield of taxane-type diterpenes, cephalomannine",[2]; [9],4 mg/L
same,"yield of taxane-type diterpenes, taxol",[2]; [9],19 mg/L
same,yield of cells,[2]; [10],14 g/L
same,"yield of taxane-type diterpenes, baccatin III",[2]; [10],4 mg/L
same,"yield of taxane-type diterpenes, cephalomannine",[2]; [10],3 mg/L
same,"yield of taxane-type diterpenes, taxol",[2]; [10],12 mg/L
same,yield of cells,[2]; [11],12 g/L
same,"yield of taxane-type diterpenes, baccatin III",[2]; [11],2 mg/L
same,"yield of taxane-type diterpenes, cephalomannine",[2]; [11],2 mg/L
same,"yield of taxane-type diterpenes, taxol",[2]; [11],7 mg/L
"CCC1C=C(C(=O)NC2(C(=O)O)CC2CC)C2CCC(=O)C2C1 (stereo not shown) [Example 7, coronatine]",yield of baccatin III,[3],26.5 mg/L
same,yield of cephalomannine,[3],15.1 mg/L
same,yield of cultured cells,[3],18.6 g/L
same,yield of taxol,[3],65.2 mg/L
same,yield of baccatin III,[4]; [12],5.0 mg/L
same,yield of cephalomannine,[4]; [12],3.8 mg/L
same,yield of cultured cells,[4]; [12],20.1 g/L
same,yield of taxol,[4]; [12],9.6 mg/L
same,yield of baccatin III,[4]; [13],8.9 mg/L
same,yield of cephalomannine,[4]; [13],10.2 mg/L
same,yield of cultured cells,[4]; [13],20.2 g/L
same,yield of taxol,[4]; [13],15.2 mg/L
same,yield of baccatin III,[4]; [14],18.7 mg/L
same,yield of cephalomannine,[4]; [14],12.3 mg/L
same,yield of cultured cells,[4]; [14],18.6 g/L
same,yield of taxol,[4]; [14],30.1 mg/L
same,yield of baccatin III,[4]; [15],28.4 mg/L
same,yield of cephalomannine,[4]; [15],11.4 mg/L
same,yield of cultured cells,[4]; [15],18.4 g/L
same,yield of taxol,[4]; [15],60.0 mg/L
same,yield of baccatin III,[4]; [16],38.5 mg/L
same,yield of cephalomannine,[4]; [16],8.8 mg/L
same,yield of cultured cells,[4]; [16],17.8 g/L
same,yield of taxol,[4]; [16],49.4 mg/L
same,yield of baccatin III,[4]; [17],44.1 mg/L
same,yield of cephalomannine,[4]; [17],7.9 mg/L
same,yield of cultured cells,[4]; [17],17.5 g/L
same,yield of taxol,[4]; [17],58.0 mg/L
same,yield of baccatin III,[4]; [18],13.2 mg/L
same,yield of cephalomannine,[4]; [18],6.5 mg/L
same,yield of cultured cells,[4]; [18],15.0 g/L
same,yield of taxol,[4]; [18],23.1 mg/L
